The values that follow come from patent US20240116898A1, “NOVEL GLUTAMINYL CYCLASE INHIBITORS AND THE USE THEREOF IN TREATMENT OF VARIOUS DISEASES” (LTD "VALENTA-INTELLEKT", priority 2017, published 2024).

For assay [1], the system named is formaldehyde-induced pharyngitis in rats. The experiment in a line: Rat model of non-infectious pharyngitis (Evans blue exudation). In kind it is in vivo. As to the method: The rats were anesthetized with sodium thiopentone (50 mg/kg, intraperitoneally) and a cannula with a RenaSil® silicone rubber tube (SIL 037, Braintree Scientific, Inc., Braintree, MA) was inserted into the external jugular vein using a heparinized saline solution (40 U/ml).
The Evans Blue dye (Evans Blue, EB) (30 mg/kg) was administered to all the animals intravenously through a catheter; 10 minutes after the EB dye was administered, a 30% formalin solution was applied to the surface of the pharyngeal mucosa as follows: the tongue was slightly pulled out, the pharyngeal area was opened deep in the mouth with blunt forceps and gently, using a sterile cotton pad, the formation solution (50 μl) was applied for 5 seconds each time it is applied. In the intact group thephysiologicla solution was used.
60 minutes after the application of 30% formalin solution, the animals were euthanized by the exsanguination. The head of each rat was perfused with the heparinized saline solution (40 U/ml) to remove the intravascular EB dye.
The degree of the inflammation was assessed by the exudation test of the Evans blue (EB) dye. […] The amount of dye in the fabric was calculated using the standard curve for the Evans blue dye, and was expressed in micrograms of the dye per gram of wet fabric weight (μg/g).
The formaldehyde solution with a concentration of 30% was adminstered to the control group.

Assay [2] has as its system carrageenan-induced rat paw edema. The experiment in a line: Carrageenan-induced rat paw edema. As to conditions: 8 mg/kg, 2 hours after carrageenan. Type of assay: in vivo.
Protocol: Experiments were performed on male white nonlinear rats weighing 250-270 g.
For assay [3], the system named is specific pain reaction by chemical irritation of the peritoneum in Balb/c mice. The experiment in a line: Abdominal constriction test (acetic acid) in mice. Type of assay: in vivo, mouse.
Protocol: The model of the specific pain reaction by the method of chemical stimulation of peritoneum (“abdominal constriction” test) was carried out according to the standard procedure. To conduct the “abdominal constriction” test, Balb/c mice were intraperitoneally administered with 1% acetic acid in a volume of 10 ml per kg of the animal body weight. […] A quantity of constrictions (convulsive twitching of the abdominal muscles accompanied with stretching hind quarters and arching) was evaluated 15 minutes after the administration of acetic acid.
Assay [4] deals with thermal pain irritation hot plate in Balb/c mice. The conditions noted are these: mouse, in vivo.
Protocol: The model of thermal pain irritation “hot plate” was carried out according to the standard procedure [Barrot M. Tests and models of nociception and pain in rodents. […] After 1 hour after the administration of the preparation, the “hot plate” test was carried out. To conduct the “hot plate” test, the mice were placed on the hot plate, the temperature (+55±1° C.) of which is constant.
The time of first manifestations of the pain response in mice (paw licking, jumping) was registered and the mean latent time of the threshold of pain sensitivity (TPS, sec) in each group was calculated.
[5] abbreviates: 0.3 mg/kg intragastric 1 hour before acetic acid.

With `O=C(O)Cc1ccccc1Nc1c(Cl)cccc1Cl` [Diclofenac, reference compound], the “Effect on pharyngitis inflammation (dye concentration)” value in assay [1] (8 mg/kg) is “no effect”. For the same compound, the “The concentration of the dye in the tissue” value in assay [1] (8 mg/kg intragastric 24 h and 1 h before formaldehyde) was found to be 0.112 ± 0.031 µg/mg. For the same compound, the “Inhibition of edema growth” value in assay [2] is 42%.

`O=C(c1ccccc1)c1ccc2n1CCC2C(=O)O` (stereo not drawn) [Ketorol, reference compound]: the “Quantity of constrictions for 15 minutes” value in assay [3] (15 mg/kg) turned out to be 23.60 ± 1.87.

Take `O=C(NCCc1cnc[nH]1)C(=O)NCCc1cnc[nH]1` [Compound I, N,N′-bis[2-(1H-imidazol-4-yl)ethyl]oxalamide]: the “Decrease of the concentration of dye in the tissue compared to the control” value in assay [1] (6 mg/kg) is 2.8 times; in assay [1] (18 mg/kg), 6.4 times. Also, in assay [4], the “Duration of the pharmacological effect” value is given as “at least 24 hours”. On to `O=C(CCCCC(=O)NCCc1cnc[nH]1)NCCc1cnc[nH]1` [Compound VII, N,N′-bis[2-(1H-imidazol-4-yl)ethyl]adipamide], for which the “Quantity of constrictions for 15 minutes” value in assay [3] (setting [5]) is 17.6 ± 2.81. For `CC(C)(CC(=O)NCCc1cnc[nH]1)CC(=O)NCCc1cnc[nH]1` [Compound IX, N,N′-bis[2-(1H-imidazol-4-yl)ethyl]-3,3-dimethylpentanediamide], the “Quantity of constrictions for 15 minutes” value in assay [3] (setting [5]) is 11.6 ± 3.5.
